This is an account of results in US10227357B2, “Compounds and methods for kinase modulation, and indications therefor” (Plexxikon Inc., priority 2012, dated 2019).

SMILES strings stand for the structures.

One assay deals with T1, c-kit kinase (Homo sapiens, UniProt P10721).
T1 construct: The c-kit (or kinase domain thereof) is an active kinase in AlphaScreen; poly-Histidine tag (in-house protein only) (cleaved yes); host or cells: E. coli BL21(DE3)RIL, co-expressed with PTP1B
Briefly: c-Kit biochemical assay, AlphaScreen, 10 μM ATP. The following applies: c-kit biochemical inhibitory activity; read-out: Biochemical activity (IC50 μM) Kit. In short, it runs like this:
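His-tagged c-Kit expressed in E. coli with co-expressed PTP1B (dephosphorylated), tag removed; 0.1 ng per reaction with biotinylated-peptide substrate in 50 mM HEPES pH 7.2, 5 mM MgCl2, 5 mM MnCl2, 5% DMSO, 10 μM ATP, 1 h at room temperature. Phosphorylation detected by AlphaScreen (streptavidin donor, PY20 acceptor beads); IC50 from 8-point 1:3 dilution series.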
On the technique in general: Alpha assays give light when donor and acceptor beads are brought close together.

A further assay concerns the target T2, c-kit mutant D816V (Homo sapiens, UniProt P10721, D816V/DEL694-753).
T2 construct: residues 551-934, kinase insertion domain residues 694-753 deleted; 6x-histidine (N); made in house; host or cells: E. coli Arctic Express (DE3) RIL (Stratagene)
Briefly: c-Kit mutant D816V biochemical assay, AlphaScreen. The following applies: c-kit D816V biochemical inhibitory activity; read-out: Biochemical activity (IC50 μM) Kit D816V. An outline of the steps: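 Eight-point, threefold compound series incubated 30 min at room temperature with E. coli-produced D816V kinase, 10 μM ATP, Mg2+/Mn2+ HEPES buffer pH 7.2 and 5% DMSO. After EDTA stop, streptavidin and anti-phosphotyrosine (PY20) AlphaScreen beads gave the read-out, and IC50 was fitted from the concentration–signal curve.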

T2 sequence (P10721 with tags, fused parts or gaps DEL694-753/D816V): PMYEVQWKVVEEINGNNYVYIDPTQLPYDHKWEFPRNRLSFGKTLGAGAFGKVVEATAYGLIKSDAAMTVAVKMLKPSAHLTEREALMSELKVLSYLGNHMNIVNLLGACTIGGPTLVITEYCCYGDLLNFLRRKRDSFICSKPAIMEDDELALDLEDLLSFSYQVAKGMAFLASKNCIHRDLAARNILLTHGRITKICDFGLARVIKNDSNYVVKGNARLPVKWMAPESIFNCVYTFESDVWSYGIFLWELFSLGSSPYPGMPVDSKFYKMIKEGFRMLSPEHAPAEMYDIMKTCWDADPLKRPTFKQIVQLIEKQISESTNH
T1 sequence (P10721 26-976): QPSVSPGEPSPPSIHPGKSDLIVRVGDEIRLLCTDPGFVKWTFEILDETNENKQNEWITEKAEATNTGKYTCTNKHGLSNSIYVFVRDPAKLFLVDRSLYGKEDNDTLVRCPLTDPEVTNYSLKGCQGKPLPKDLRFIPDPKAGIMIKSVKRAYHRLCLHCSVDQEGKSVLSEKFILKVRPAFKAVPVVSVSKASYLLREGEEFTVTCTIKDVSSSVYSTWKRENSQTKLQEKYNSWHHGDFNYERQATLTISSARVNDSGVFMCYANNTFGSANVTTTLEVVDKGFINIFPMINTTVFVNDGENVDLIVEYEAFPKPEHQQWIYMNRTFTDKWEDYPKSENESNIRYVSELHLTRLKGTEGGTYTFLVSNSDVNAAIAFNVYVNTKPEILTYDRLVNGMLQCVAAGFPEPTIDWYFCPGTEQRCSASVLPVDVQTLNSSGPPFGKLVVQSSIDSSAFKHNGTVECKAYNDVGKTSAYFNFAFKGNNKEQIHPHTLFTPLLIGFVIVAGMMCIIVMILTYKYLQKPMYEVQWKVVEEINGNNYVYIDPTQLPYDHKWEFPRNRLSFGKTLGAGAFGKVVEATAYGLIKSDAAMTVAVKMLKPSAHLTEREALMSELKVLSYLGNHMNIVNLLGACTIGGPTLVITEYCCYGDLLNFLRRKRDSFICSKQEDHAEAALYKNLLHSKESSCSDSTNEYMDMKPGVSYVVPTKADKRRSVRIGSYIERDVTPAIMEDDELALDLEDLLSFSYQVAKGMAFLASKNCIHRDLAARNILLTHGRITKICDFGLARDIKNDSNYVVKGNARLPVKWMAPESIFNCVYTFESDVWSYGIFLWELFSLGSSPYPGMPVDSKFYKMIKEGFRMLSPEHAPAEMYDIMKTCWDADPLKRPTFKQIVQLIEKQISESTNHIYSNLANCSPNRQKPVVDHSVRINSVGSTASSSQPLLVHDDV

Consider `Cc1nn(C)cc1-c1cc2c(N3CCC(NS(=O)(=O)c4ccc(OC(F)(F)F)cc4)CC3)ncnc2[nH]1` [P-0668, N-[1-[6-(1,3-dimethylpyrazol-4-yl)-7H-pyrrolo[2,3-d]pyrimidin-4-yl]-4-piperidyl]-4-(trifluoromethoxy)benzenesulfonamide], for which the IC50 at c-kit kinase and at c-kit mutant D816V was 0.0001 to 1 µM in each case.
As for `O=S(=O)(NC1CCN(c2ncnc3[nH]c(C4=CCCC4)cc23)CC1)c1ccc(OC(F)(F)F)cc1` [P-0669, N-[1-[6-(cyclopenten-1-yl)-7H-pyrrolo[2,3-d]pyrimidin-4-yl]-4-piperidyl]-4-(trifluoromethoxy)benzenesulfonamide], the IC50 on c-kit kinase and at c-kit mutant D816V was 0.0001 to 1 µM throughout.
As for `Cc1ccc(S(=O)(=O)NC2CCN(c3ncnc4[nH]c(-c5cnn(C)c5)cc34)CC2C)cc1` (stereo not shown) [P-0672, 4-methyl-N-[3-methyl-1-[6-(1-methylpyrazol-4-yl)-7H-pyrrolo[2,3-d]pyrimidin-4-yl]-4-piperidyl]benzenesulfonamide], the IC50 at c-kit kinase and at c-kit mutant D816V was 0.0001 to 1 µM in each case.
On to `CN(C)c1ncc(-c2cc3c(N4CCC(NS(=O)(=O)c5ccc(OC(F)(F)F)cc5)CC4)ncnc3[nH]2)s1` [P-0673, N-[1-[6-[2-(dimethylamino)thiazol-5-yl]-7H-pyrrolo[2,3-d]pyrimidin-4-yl]-4-piperidyl]-4-(trifluoromethoxy)benzenesulfonamide], for which the IC50 on c-kit kinase and on c-kit mutant D816V was 1 to 10 µM throughout.
On to `CCc1ccc(S(=O)(=O)NC2CCN(c3ncnc4[nH]c(C)cc34)CC2)cc1` [P-0674, 4-ethyl-N-[1-(6-methyl-7H-pyrrolo[2,3-d]pyrimidin-4-yl)-4-piperidyl]benzenesulfonamide], for which the IC50 is 10 to 200 µM on c-kit kinase and 1 to 10 µM on c-kit mutant D816V.
In the case of `Cc1ccc(S(=O)(=O)NC2CCN(c3ncnc4[nH]c(C)cc34)CC2)cc1` [P-0675, 4-methyl-N-[1-(6-methyl-7H-pyrrolo[2,3-d]pyrimidin-4-yl)-4-piperidyl]benzenesulfonamide], the figures for the IC50 at c-kit kinase and at c-kit mutant D816V were 10 to 200 µM and 1 to 10 µM, respectively.
With `CCc1ccc(S(=O)(=O)NC2CCN(c3ncnc4[nH]c(-c5cnn(C)c5)cc34)CC2)cc1` [P-0676, 4-ethyl-N-[1-[6-(1-methylpyrazol-4-yl)-7H-pyrrolo[2,3-d]pyrimidin-4-yl]-4-piperidyl]benzenesulfonamide], the IC50 at c-kit kinase and on c-kit mutant D816V was 0.0001 to 1 µM each time.
Turning to `CC(C)(NC(=O)N1CC=C(c2ncnc3cc(-c4ccc(F)cc4)sc23)CC1)c1ccccc1` [P-0679, 4-[6-(4-fluorophenyl)thieno[3,2-d]pyrimidin-4-yl]-N-(1-methyl-1-phenyl-ethyl)-3,6-dihydro-2H-pyridine-1-carboxamide], the IC50 on c-kit kinase is 1 to 10 µM; on c-kit mutant D816V it was 0.0001 to 1 µM.
For the compound `COc1cccc([C@H](C)NC(=O)N2CCN(c3ncnc4cc(N5CCC(F)(F)CC5)sc34)CC2(C)C)c1` [P-0680, 4-[6-(4,4-difluoro-1-piperidyl)thieno[3,2-d]pyrimidin-4-yl]-N-[(1S)-1-(3-methoxyphenyl)ethyl]-2,2-dimethyl-piperazine-1-carboxamide], the results for the IC50 on c-kit kinase and on c-kit mutant D816V were 1 to 10 µM and 0.0001 to 1 µM, respectively.
Taken in the same sequence, the figures for `CCOC(=O)N1CCN(c2cc3ncnc(N4CCN(C(=O)N[C@@H](C)c5cccc(OC)c5)C(C)(C)C4)c3s2)CC1` [P-0681, ethyl 4-[4-[4-[[(1S)-1-(3-methoxyphenyl)ethyl]carbamoyl]-3,3-dimethyl-piperazin-1-yl]thieno[3,2-d]pyrimidin-6-yl]piperazine-1-carboxylate] were 1 to 10 µM and 0.0001 to 1 µM.
In the case of `COc1cccc([C@H](C)NC(=O)N2CCN(c3ncnc4[nH]c(C)cc34)C[C@H]2C)c1` [P-0683, (2R)-N-[(1S)-1-(3-methoxyphenyl)ethyl]-2-methyl-4-(6-methyl-7H-pyrrolo[2,3-d]pyrimidin-4-yl)piperazine-1-carboxamide], the IC50 on c-kit kinase and on c-kit mutant D816V was 10 to 200 µM each time.
For the compound `Cc1cc2c(N3CCN(C(=O)N[C@@H](C)c4cccc(F)c4)[C@H](C)C3)ncnc2[nH]1` [P-0684, (2R)-N-[(1S)-1-(3-fluorophenyl)ethyl]-2-methyl-4-(6-methyl-7H-pyrrolo[2,3-d]pyrimidin-4-yl)piperazine-1-carboxamide], the IC50 on c-kit kinase lay in the range of 10 to 200 µM; at c-kit mutant D816V it was 0.0001 to 1 µM.
The corresponding values for `COc1cccc([C@H](C)NC(=O)N2CCN(c3ncnc4[nH]c(-c5ccc(C#N)cc5)cc34)CC2(C)C)c1` [P-0687, 4-[6-(4-cyanophenyl)-7H-pyrrolo[2,3-d]pyrimidin-4-yl]-N-[(1S)-1-(3-methoxyphenyl)ethyl]-2,2-dimethyl-piperazine-1-carboxamide] are 10 to 200 µM and 1 to 10 µM.
Consider `C[C@H](NC(=O)N1CCN(c2ncnc3[nH]c(-c4ccc(C#N)cc4)cc23)CC1(C)C)c1cccc(F)c1` [P-0688, 4-[6-(4-cyanophenyl)-7H-pyrrolo[2,3-d]pyrimidin-4-yl]-N-[(1S)-1-(3-fluorophenyl)ethyl]-2,2-dimethyl-piperazine-1-carboxamide], for which the IC50 on c-kit kinase lay in the range of 1 to 10 µM; at c-kit mutant D816V it was 0.0001 to 1 µM.
The corresponding values for `C[C@H](NC(=O)N1CCN(c2ncnc3[nH]c(-c4ccc(C#N)cc4)cc23)CC1(C)C)c1cccc(Cl)c1` [P-0689, N-[(1S)-1-(3-chlorophenyl)ethyl]-4-[6-(4-cyanophenyl)-7H-pyrrolo[2,3-d]pyrimidin-4-yl]-2,2-dimethyl-piperazine-1-carboxamide] are 0.0001 to 1 µM and 0.0001 to 1 µM.
For the compound `C[C@H](NC(=O)N1CCN(c2ncnc3[nH]c(-c4ccc(C#N)cc4)cc23)C[C@H]1C)c1ccc(F)cc1` [P-0690, (2R)-4-[6-(4-cyanophenyl)-7H-pyrrolo[2,3-d]pyrimidin-4-yl]-N-[(1S)-1-(4-fluorophenyl)ethyl]-2-methyl-piperazine-1-carboxamide], the IC50 fell in the range of 10 to 200 µM at c-kit kinase and 0.0001 to 1 µM at c-kit mutant D816V.
Regarding `C[C@H](NC(=O)N1CCN(c2ncnc3[nH]c(-c4ccc(C#N)cc4)cc23)C[C@H]1C)c1ccc(Cl)cc1` [P-0691, (2R)-N-[(1S)-1-(4-chlorophenyl)ethyl]-4-[6-(4-cyanophenyl)-7H-pyrrolo[2,3-d]pyrimidin-4-yl]-2-methyl-piperazine-1-carboxamide], the results for the IC50 at c-kit kinase and at c-kit mutant D816V were 10 to 200 µM and 0.0001 to 1 µM, respectively.
For `COc1cccc([C@H](C)NC(=O)N2CCN(c3ncnc4[nH]c(-c5ccc(C#N)cc5)cc34)C[C@H]2C)c1` [P-0692, (2R)-4-[6-(4-cyanophenyl)-7H-pyrrolo[2,3-d]pyrimidin-4-yl]-N-[(1S)-1-(3-methoxyphenyl)ethyl]-2-methyl-piperazine-1-carboxamide], the results for the IC50 at c-kit kinase and on c-kit mutant D816V were 1 to 10 µM and 0.0001 to 1 µM, respectively.
For `C[C@H](NC(=O)N1CCN(c2ncnc3[nH]c(-c4ccc(C#N)cc4)cc23)C[C@H]1C)c1cccc(Cl)c1` [P-0694, (2R)-N-[(1S)-1-(3-chlorophenyl)ethyl]-4-[6-(4-cyanophenyl)-7H-pyrrolo[2,3-d]pyrimidin-4-yl]-2-methyl-piperazine-1-carboxamide], the IC50 at c-kit kinase fell in the range of 10 to 200 µM; at c-kit mutant D816V, 0.0001 to 1 µM.
`COc1cc(-c2cc3c(N4CCN(C(=O)N[C@@H](C)c5ccc(F)cc5)[C@H](C)C4)ncnc3[nH]2)ccn1` [P-0695, (2R)-N-[(1S)-1-(4-fluorophenyl)ethyl]-4-[6-(2-methoxy-4-pyridyl)-7H-pyrrolo[2,3-d]pyrimidin-4-yl]-2-methyl-piperazine-1-carboxamide]: the IC50 on c-kit kinase lay within 10 to 200 µM; on c-kit mutant D816V, 0.0001 to 1 µM.

What is called IC50 is the midpoint of a concentration-inhibition curve.
